Test results reported in patent publication US20240368109A1, “ALLOSTERIC MODULATORS OF NICOTINIC ACETYLCHOLINE RECEPTORS” (MERCK SHARP & DOHME LLC, priority 2021, published 2024).

Target: human α7 nAChR (Homo sapiens (Human), UniProt P36544)
Test: Automated patch-clamp electrophysiology functional assay (Assay A)
Assay type: cell-based
Details: IonFlux HT whole-cell population patch, HEK cells expressing human α7/RIC-3, 40 μM acetylcholine
Protocol: The α7 nAChR positive allosteric modulator (PAM) activity of the present compounds may be tested using assays known in the art. The α7 nAChR PAMs described herein have activities in an automated patch-clamp electrophysiology functional assay as described in the examples. The assay was performed using the IonFlux HT in a whole-cell, population patch configuration. See Golden et al. Assay Drug Dev. Technol. (2011) 9:608-619. The compounds were assessed for their ability to modulate the function of the human α7 nAChR stably expressed in a HEK cell line both in the presence, and in the absence of the natural α7 agonist acetylcholine. By performing a series of such measurements at different concentrations, the effective concentration of the α7 nAChR PAMs (EC50) was determined. See Spencer et al. Assay Drug Dev. Technol. (2012) 10:313-324.
Direct activation of α7 (agonism), and potentiation of acetylcholine-evoked α7 currents was determined as follows:
Automated Patch-Clamp Electrophysiology Functional Assay (Assay A)
Automated patch-clamp electrophysiology was performed using the IonFluxHT (Fluxion Biosciences Inc., San Francisco, CA) in the whole-cell, population patch configuration. Test compounds were assessed for their ability to modulate the function of the α7 nicotinic acetylcholine receptor both in the presence, and in the absence of the natural α7 agonist acetylcholine. A HEK cell line stably expressing both human RIC-3 and human α7 (PrecisION hnAChR α7/RIC-3, Eurofins Pharma, St. Charles, MO) was cultured in 175 cm^2 triple-layer tissue culture flasks to no more than 90% confluency in DMEM/F-12 growth media supplemented with 10% heat-inactivated fetal bovine serum, 1% non-essential amino acids, 0.625 μg/mL Puromycin, and 400 μg/mL Geneticin. Immediately prior to assay, cells were detached by first aspirating growth media, rinsing with Dulbecco's phosphate buffered saline, and then adding 10 mL of Accutase (Innovative Cell Technologies, San Diego, CA) to the flask and then incubating at 37° C. for 5 minutes. Detached cells were then recovered by the addition of 40 mL of CHO-serum-free media supplemented with 25 mM HEPES, and rocked gently in a 50 mL conical tube for 20 minutes prior to patch-clamp assay. After recovery, cells were pelleted by centrifugation at 1,000 RPM for 1 minute in a compact bench top centrifuge; recovery media was aspirated and cells were resuspended in external recording solution (150 mM NaCl, 5 mM KCl, 2 mM CaCl2), 1 mM MgCl2, 10 mM HEPES, 12 mM dextrose) to a density of 5.0×10^6 cells/mL. The cell suspension was added to the cell inlet wells on an IonFlux HT population patch plate which had previously been rinsed and primed with deionized H2O. Test compounds were serially diluted in DMSO and then resuspended to the final test concentration in external recording solution, with, or without 40 μM acetylcholine added to the external recording solution; test compounds were then transferred to the IonFlux HT population patch plate. Internal recording solution (110 mM TrisPO4, 28 mM TrisBase, 0.1 mM CaCl2), 2 mM MgCl2, 11 mM EGTA, 4 mM MgATP) was added to the internal recording solution inlet wells on the IonFlux HT patch plate previously loaded with cells and test compounds, and the plate loaded into the IonFlux HT instrument. A protocol was executed on the IonFlux HT to trap the cells, break into the cells, and establish the whole-cell recording configuration; cells were voltage-clamped at a holding potential of −60 mV for the duration of the experiment, all experiments were conducted at room temperature, and the IonFlux HT injection pressure was 8 psi for solution applications. Upon establishing the whole-cell configuration, external recording solution was perfused into the recording chambers for 120 seconds and then 40 μM acetylcholine was applied for 1 second and immediately washed off with external recording solution for 60 seconds. […]

human α7 nAChR, sequence (P36544 23-502): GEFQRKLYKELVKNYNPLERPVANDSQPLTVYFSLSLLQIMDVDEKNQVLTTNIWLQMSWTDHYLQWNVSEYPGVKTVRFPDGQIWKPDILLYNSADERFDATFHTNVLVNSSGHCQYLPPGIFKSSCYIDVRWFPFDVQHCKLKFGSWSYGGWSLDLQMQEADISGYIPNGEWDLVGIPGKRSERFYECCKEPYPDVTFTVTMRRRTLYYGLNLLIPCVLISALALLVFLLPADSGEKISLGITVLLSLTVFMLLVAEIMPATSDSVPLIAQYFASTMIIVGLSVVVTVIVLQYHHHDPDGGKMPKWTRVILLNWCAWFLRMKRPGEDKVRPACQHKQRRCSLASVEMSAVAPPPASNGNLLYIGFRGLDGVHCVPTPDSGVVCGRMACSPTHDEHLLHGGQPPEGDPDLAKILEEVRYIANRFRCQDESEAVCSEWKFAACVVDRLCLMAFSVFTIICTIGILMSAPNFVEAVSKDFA

Row | Compound | EC50 (electrophysiology EC50 values) [nM] | EC50 (potency class) [nM]
1 | O=C(N[C@@H]1CCc2c(O)cccc21)C1C2Oc3ccc(F)cc3C21 (mixture of isomers) [Example C10, exo-5-fluoro-N-(4-hydroxy-2,3-dihydro-1H-inden-1-yl)-1a,6b-dihydro-1H-cyclopropa[b][1]benzofuran-1-carboxamide] | 1600 | 500 to 5000
2 | COC(=O)[C@@H](NC(=O)C1C2Oc3ccc(F)cc3C21)c1cccc(F)c1 (mixture of isomers) [Example C13, methyl 2-(3-fluorophenyl)-2-[(exo-5-fluoro-1a,6b-dihydro-1H-cyclopropa[b][1]benzofuran-1-carbonyl)amino]acetate] | 3500 | 500 to 5000
3 | CCOc1ccc([C@H](COC)NC(=O)C2C3Cc4ccccc4C32)cc1 (single isomer, unassigned) [Example 1] | 760 | 500 to 5000
4 | CCOc1ccc([C@H](COC)NC(=O)C2C3Cc4ccccc4C32)cc1 (single isomer, unassigned) [Example 2] | 72 | ≤ 100
5 | CCOc1ccc([C@H](COC)NC(=O)C2C3Oc4ccc(-c5cn(Cc6ccccc6)nn5)cc4C32)cc1 (single isomer, unassigned) [Example 6] | 1100 | 500 to 5000
6 | COC(CNC(=O)[C@@H]1[C@H]2COc3ccc(F)cc3[C@H]21)C1CCCCC1 (single isomer, unassigned) [Example A4, exo-N-(2-cyclohexyl-2-methoxyethyl)-6-fluoro-1,1a,2,7b-tetrahydrocyclopropa[c][1]benzopyran-1-carboxamide] | – | 500 to 5000
7 | O=C(N[C@@H](CO)C1CCCCC1)C1C2COc3ccc(F)cc3C21 (stereo partly drawn) [Example 3, exo-N-[(1R)-1-Cyclohexyl-2-hydroxyethyl]-6-fluoro-1,1a,2,7b-tetrahydrocyclopropa[c][1]benzopyran-1-carboxamide] | 1700 | 500 to 5000
8 | COc1cc([C@@H](NC(=O)C2C3COc4ccc(F)cc4C32)C(F)(F)F)ccn1 (stereo partly drawn) [Example 4, exo-6-Fluoro-N-[(1R)-2,2,2-trifluoro-1-(2-methoxypyridin-4-yl)ethyl]-1,1a,2,7b-tetrahydrocyclopropa[c][1]benzopyran-1-carboxamide] | 1100 | 500 to 5000
9 | CCOc1ccc([C@H](COC)NC(=O)C2C3Oc4ccc(-c5nn[nH]n5)cc4C32)cc1 (stereo partly drawn) [Example 5, exo-N-[(1R)-1-(4-Ethoxyphenyl)-2-methoxyethyl]-5-(2H-tetrazol-5-yl)-1a,6b-dihydro-1H-cyclopropa[b][1]benzofuran-1-carboxamide] | 1500 | 500 to 5000
10 | O=C(NCc1nc(-c2ccccc2)no1)C1C2Oc3ccc(F)cc3C21 (stereo not drawn) [Example 7, exo-5-Fluoro-N-[(3-phenyl-1,2,4-oxadiazol-5-yl)methyl]-1a,6b-dihydro-1H-cyclopropa[b][1]benzofuran-1-carboxamide] | 50 | ≤ 100
11 | O=C(NC1(c2ccc(F)cc2)COC1)C1C2COc3ccccc3C21 (stereo not drawn) [Example A1, exo-N-[3-(4-fluorophenyl)oxetan-3-yl]-1,1a,2,7b-tetrahydrocyclopropa[c][1]benzopyran-1-carboxamide] | 1500 | 500 to 5000
12 | O=C(NC1(c2ccc(F)cc2)COC1)C1C2COc3ccc(F)cc3C21 (stereo not drawn) [Example A2, exo-6-fluoro-N-[3-(4-fluorophenyl)oxetan-3-yl]-1,1a,2,7b-tetrahydrocyclopropa[c][1]benzopyran-1-carboxamide] | 1200 | 500 to 5000
13 | CCOc1ccc([C@H](CO)NC(=O)C2C3COc4ccc(F)cc4C32)cn1 (stereo partly drawn) [Example A3, exo-N-[(1R)-1-(6-ethoxypyridin-3-yl)-2-hydroxyethyl]-6-fluoro-1,1a,2,7b-tetrahydrocyclopropa[c][1]benzopyran-1-carboxamide] | 2200 | 500 to 5000
14 | O=C(NC1(c2ccc(F)cc2)CC(O)C1)C1C2COc3ccccc3C21 (stereo not drawn) [Example A5, exo-N-[1-(4-fluorophenyl)-3-hydroxycyclobutyl]-1,1a,2,7b-tetrahydrocyclopropa[c][1]benzopyran-1-carboxamide] | 4600 | 500 to 5000
